Reference: ChEMBL document CHEMBL1130506, “Inhibition of the her2 tyrosine kinase and characterization of a hydrophobic site near the nucleotide binding domain” (Bioorg Med Chem Lett, 1997)

These compounds were tested against Receptor tyrosine-protein kinase erbB-2 (Homo sapiens, UniProt P04626) (assay: Inhibition of autophosphorylation of HER-2 expressed in NIH3T3 cell lines).
Format: cell-based

Chain of Receptor tyrosine-protein kinase erbB-2 (P04626 whole entry): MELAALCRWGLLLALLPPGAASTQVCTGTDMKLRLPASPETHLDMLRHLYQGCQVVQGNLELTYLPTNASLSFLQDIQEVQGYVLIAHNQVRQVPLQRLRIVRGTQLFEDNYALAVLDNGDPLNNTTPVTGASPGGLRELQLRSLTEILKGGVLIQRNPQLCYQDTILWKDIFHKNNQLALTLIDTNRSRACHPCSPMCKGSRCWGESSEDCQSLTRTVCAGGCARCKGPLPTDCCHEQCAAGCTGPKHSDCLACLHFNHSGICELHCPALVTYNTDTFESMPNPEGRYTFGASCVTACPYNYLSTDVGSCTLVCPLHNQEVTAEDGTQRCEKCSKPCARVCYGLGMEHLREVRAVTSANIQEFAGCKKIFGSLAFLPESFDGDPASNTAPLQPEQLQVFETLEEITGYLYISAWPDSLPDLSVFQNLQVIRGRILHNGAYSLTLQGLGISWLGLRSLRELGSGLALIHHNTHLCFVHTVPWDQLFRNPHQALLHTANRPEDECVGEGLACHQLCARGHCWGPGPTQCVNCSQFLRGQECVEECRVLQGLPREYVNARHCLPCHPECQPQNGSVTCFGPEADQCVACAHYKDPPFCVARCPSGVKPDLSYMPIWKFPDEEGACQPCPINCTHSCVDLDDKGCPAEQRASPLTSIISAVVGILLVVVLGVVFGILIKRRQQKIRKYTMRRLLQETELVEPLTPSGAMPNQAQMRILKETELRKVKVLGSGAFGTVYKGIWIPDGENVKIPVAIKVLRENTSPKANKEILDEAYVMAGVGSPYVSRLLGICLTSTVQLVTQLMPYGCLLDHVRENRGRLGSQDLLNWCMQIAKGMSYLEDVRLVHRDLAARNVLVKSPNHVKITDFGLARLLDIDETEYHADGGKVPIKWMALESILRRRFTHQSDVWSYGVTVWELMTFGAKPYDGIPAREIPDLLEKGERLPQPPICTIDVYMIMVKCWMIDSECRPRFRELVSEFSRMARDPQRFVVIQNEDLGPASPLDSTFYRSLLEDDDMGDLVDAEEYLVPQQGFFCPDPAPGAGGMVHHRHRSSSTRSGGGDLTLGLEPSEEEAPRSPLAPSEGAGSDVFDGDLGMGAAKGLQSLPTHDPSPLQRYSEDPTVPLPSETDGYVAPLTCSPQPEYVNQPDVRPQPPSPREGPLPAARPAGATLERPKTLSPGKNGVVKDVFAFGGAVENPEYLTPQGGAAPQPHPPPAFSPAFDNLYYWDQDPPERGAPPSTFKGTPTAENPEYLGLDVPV

| Structure (SMILES) | IC50 [µM] |
| --- | --- |
| COc1ccc(OC(=O)CCCC(=O)Oc2ccc(/C=C/[N+](=O)[O-])cc2)cc1 | 6.6 |
| O=C(CCCC(=O)Oc1ccc(/C=C/[N+](=O)[O-])cc1)OCc1ccco1 | 3.8 |
| O=C(CCCC(=O)Oc1ccc(/C=C/[N+](=O)[O-])cc1)Oc1ccccc1 | 4.4 |
| CC(C)O[C@@H]1[C@H](OC(C)C)[C@@H](COC(=O)CCCC(=O)Oc2ccc(/C=C/[N+](=O)[O-])cc2)O[C@H]1n1cnc2c(N)ncnc21 | 4.5 |
